Results from patent EP4692079A1, “CYP11A1 INHIBITOR AND USE THEREOF” (priority 2023, dated 2024).
Like-named read-outs stand apart in the source and are kept apart here.

Assays:
[1] = test system: testosterone level in NCI-H295R cells; test: cells; type: cell-based; conditions: Homo sapiens, NCI-H295R, 72 h; for IC50: read-out: Testosterone level in H295R (Elisa) IC50 nM
Procedure: The purpose of the experimental study was intended to detect the testosterone level in the NCI-H295R cells by adopting the Enzyme linked immunosorbent assay (ELISA), so as to evaluate the inhibitory effects of the compounds on the testosterone level in the NCI-H295R cells.
The H295R cells were purchased from ATCC, the cell complete medium contained DMEM: F12+ 10% FBS +0.00625 mg/ml insulin +0.00625 mg/ml transferrin+6.25 ng/ml selenium +1.25 mg/ml BSA+0.00535 mg/ml linoleic acid, and the cells were cultured in a 37°C, 5% CO2 incubator. The cells in the exponential growth phase were collected, and cultured in a cytokine-free medium (phenol red 1640-free +1% PS+10% css FBS+1.25 mg/ml BSA +0.00625 mg/ml insulin + 0.00625 mg/ml transferrin+6.25 ng/ml selenium+0.00535 mg/ml linoleic acid) for three days. The cells in the exponential growth phase were collected on the third day. The cell suspension was adjusted with a cytokine-free medium to a corresponding concentration and plated at 60000 cells/well, with the volume being 90 µL/well. Subsequently, 10 µL of the compounds at different concentrations was added and the plate was incubated in a CO2 incubator for three days. After the incubation was completed, according to the operation instructions for testosterone Elisa kit (Beyotime, PT872), 50 µL of the cell culture supernatant was collected from each well and centrifuged at 500 g for 5 min at room temperature and then the resulting supernatant was collected. The samples were added to the corresponding wells at 25 µl/well, and then formulated horseradish peroxidase labelled testosterone was added at 75 µl/well. The mixture was fully mixed for 10 seconds. The reaction wells were sealed with a plate-sealing film (white) and the mixture was incubated at room temperature in the dark for 120 min. The plate was washed three times with a volume of 300 µl per well, and then placed onto thick absorbent paper and dried. Chromogenic reagent TMB solution was added at 100 µl/well. The reaction wells were sealed with a plate-sealing film (white) and the mixture was incubated at room temperature in the dark for 15-20 min. Subsequently, a termination solution was added at 50 µl/well, and after the mixture was fully mixed, the absorbance value OD450 was immediately measured. The absorbance readings were processed using Graphpad Prim 8.0 software and S-shaped concentration curves were plotted and the IC50 values were calculated using a four-parameter non-linear regression model.

[2] = Pharmacokinetic test in rats; type: in vivo; conditions: rat, male SD rats, plasma; for Vd: read-out: Vdss
Procedure: 3.1 Experimental animals: Male SD rats (about 220 g, 6-8 weeks old, 6 rats/compound) were purchased from Chengdu Dossy Experimental Animals Co., Ltd.
3.2 Experimental design: On the day of the experiment, the SD rats were randomly grouped by body weight. […] Table 4 Administration information
Before and after the administration, 0.1 ml of blood was taken from the orbit of the animals under isoflurane anaesthesia and placed in an EDTAK2 centrifuge tube. The blood was centrifuged at 5000 rpm and 4°C for 10 min to collect plasma. […] Before analysis and detection, all samples were stored at -80°C. Table 5 Pharmacokinetic parameters of test compounds in plasma of rats

[3] = test system: pregnenolone level in NCI-H295R cells; test: cells; type: cell-based; conditions: Homo sapiens, 72 h; for IC50: read-out: Pregnenolone level in H295R (Elisa) IC50 nM; for inhibition at 0.1 µM: read-out: Pregnenolone level in H295R (Elisa) inh.% 100 nM; for inhibition at 1 µM: read-out: Pregnenolone level in H295R (Elisa) inh.% 1000 nM
Procedure: 2. The purpose of the experimental study was intended to detect the pregnenolone level in the NCI-H295R cells by adopting the Enzyme linked immunosorbent assay (ELISA), so as to evaluate the inhibitory effects of the compounds on the pregnenolone level in the NCI-H295R cells.
The H295R cells were purchased from ATCC (CRL-2128), the cell complete medium contained DMEM: F12+ 10% FBS +0.00625 mg/ml insulin+0.00625 mg/mL transferrin+6.25 ng/mL selenium+1.25 mg/mL BSA+0.00535 mg/mL linoleic acid, and the cells were cultured in a 37°C, 5% CO2 incubator. The cells in the exponential growth phase were collected, and cultured in a cytokine-free medium (phenol red 1640-free +1% PS+10% css FBS+1.25 mg/mL BSA +0.00625 mg/mL insulin+0.00625 mg/mL transferrin+6.25 ng/mL selenium+0.00535 mg/mL linoleic acid) for three days. The cells in the exponential growth phase were collected on the third day. The cell suspension was adjusted with a cytokine-free medium to a corresponding concentration and plated at 60000 cells/well, with the volume being 90 µL/well. Subsequently, 10 µL of the compounds at different concentrations was added and the plate was incubated in a CO2 incubator for three days. After the incubation was completed, the cell culture supernatant was collected and centrifuged at 2°C-8°C at 800×g for 10 min. The resulting supernatant was collected. Determination was carried out according to the operation instructions for pregnenolone Elisa kit (Antibodies-A73791), and the OD450 signal was read.
2.1 Standard curve plotting. The standard concentration was taken as the abscissa and the OD450 value as the ordinate, the coordinate points of various standards were connected with a smooth line and a curve was fitted according to the four parameter logistic (4-PL) method.
2.2 Sample quantification: The corresponding concentration (CONC) of testosterone/pregnenolone in the sample was calculated using the absorbance value of the sample and the standard curve. According to formula (1), the inhibition rate of the compound at various concentrations was calculated, and S-shaped concentration curves were plotted and the IC50 values (i.e., concentration of the compound at which the inhibition rate was 50%) were calculated using a three parameter non-linear regression model in Graphpad Prim 8.0 software. CONC cpd was the concentration of the treated group, and CONC ctrl was the average concentration value of the solvent control group. Inhibition rate% = 100%−CONCcpd /CONCctrl × 100% [formula] Table 3 Inhibitory effects of compounds on pregnenolone level in NCI-H295R cells

[4] = Pharmacokinetic test in mice; type: in vivo; conditions: mouse, male ICR mice, plasma; for Vd: read-out: Vdss
Procedure: 4.1. Experimental animals: Male ICR mice, 20-25 g, 6 mice/compound, were purchased from Chengdu Dossy Experimental Animals Co., Ltd.
4.2 Experimental design: on the day of the experiment, the ICR mice were randomly grouped according to their body weights. […] Table 6 Administration information
Before and after administration, 0.06 mL of blood was taken from the orbit under isoflurane anaesthesia and placed in an EDTAK2 centrifuge tube. The tube was centrifuged at 5000 rpm at 4°C for 10 min, and plasma was collected. […] Before analysis and detection, all samples were stored at -80°C, and the samples were quantitatively analysed by LC-MS/MS.

[5] = po, intragastric administration (10 mg/kg)
[6] = intravenous administration (2.5 mg/kg)
[7] = read-out: Testosterone level in H295R (Elisa) inh.% 100 nM
[8] = read-out: Testosterone level in H295R (Elisa) inh.% 1000 nM

CS(=O)(=O)N1CC(OC(=O)N2CCC(COc3coc(CN4Cc5ccc(C(F)(F)F)cc5C4)cc3=O)CC2)C1 [Compound 17]
inhibition at 0.1 µM ([1]; read-out: Testosterone level in H295R (Elisa) inh.% 100 nM, 100 nM compound, NCI-H295R cells, three days incubation): 91.6% | inhibition at 1 µM ([1]; read-out: Testosterone level in H295R (Elisa) inh.% 1000 nM, 1000 nM compound, NCI-H295R cells, three days incubation): 93.6% | AUC(0-t) [2, 5]: 5240 ng·h/mL | half-life [2, 5]: 2.72 h | AUC(0-t) [2, 6]: 1680 ng·h/mL | clearance [2, 6]: 24.4 mL/min/kg | half-life [2, 6]: 1.59 h | Vd [2, 6]: 2.53 L/kg | IC50 [3]: 773 nM | inhibition at 0.1 µM [3]: 64.9% | inhibition at 1 µM [3]: 75.2% | AUC(0-t) [4, 5]: 17800 ng·h/mL | half-life [4, 5]: 2.42 h | AUC(0-t) [4, 6]: 4790 ng·h/mL | clearance [4, 6]: 8.73 mL/min/kg | half-life [4, 6]: 2.96 h | Vd [4, 6]: 1.81 L/kg

O=C(N[C@H]1CC[C@H](/C=C/c2coc(CN3Cc4ccc(C(F)(F)F)cc4C3)cc2=O)CC1)C1CC1 [Compound 61]
IC50 [1]: 162 nM | inhibition at 0.1 µM [1, 7]: 71% | inhibition at 1 µM [1, 8]: 79% | AUC(0-t) [2, 5]: 17400 ng·h/mL | half-life [2, 5]: 3.03 h | AUC(0-t) [2, 6]: 5590 ng·h/mL | clearance [2, 6]: 7.49 mL/min/kg | half-life [2, 6]: 2.58 h | Vd [2, 6]: 1.42 L/kg | IC50 [3]: 370 nM | AUC(0-t) [4, 5]: 32100 ng·h/mL | half-life [4, 5]: 3.47 h | AUC(0-t) [4, 6]: 6080 ng·h/mL | clearance [4, 6]: 6.8 mL/min/kg | half-life [4, 6]: 3.73 h | Vd [4, 6]: 1.75 L/kg

[2H]C([2H])([2H])n1cc(C(=O)N[C@H]2CC[C@H](CCc3coc(CN4Cc5ccc(C(F)(F)F)cc5C4)cc3=O)CC2)cn1 [Compound 118]
IC50 [1]: 36 nM | inhibition at 0.1 µM [1, 7]: 70% | inhibition at 1 µM [1, 8]: 83% | AUC(0-t) [2, 5]: 11400 ng·h/mL | half-life [2, 5]: 4.41 h | AUC(0-t) [2, 6]: 5200 ng·h/mL | clearance [2, 6]: 8.18 mL/min/kg | half-life [2, 6]: 1.58 h | Vd [2, 6]: 0.755 L/kg | IC50 [3]: 71 nM | AUC(0-t) [4, 5]: 28000 ng·h/mL | half-life [4, 5]: 3.45 h | AUC(0-t) [4, 6]: 7980 ng·h/mL | clearance [4, 6]: 5.22 mL/min/kg | half-life [4, 6]: 2.78 h | Vd [4, 6]: 0.966 L/kg

O=C(N[C@H]1CC[C@H](/C=C/c2coc(CN3Cc4ccc(C(F)(F)F)cc4C3)cc2=O)CC1)[C@H]1CC1(F)F [Compound 90]
IC50 [1]: 73 nM | inhibition at 0.1 µM [1, 7]: 80% | inhibition at 1 µM [1, 8]: 85% | IC50 [3]: 119 nM | inhibition at 0.1 µM [3]: 43.4% | inhibition at 1 µM [3]: 67% | AUC(0-t) [4, 5]: 40600 ng·h/mL | half-life [4, 5]: 6.36 h | AUC(0-t) [4, 6]: 10600 ng·h/mL | clearance [4, 6]: 3.67 mL/min/kg | half-life [4, 6]: 6.73 h | Vd [4, 6]: 1.73 L/kg

O=C(N[C@H]1CC[C@H](/C=C/c2coc(CN3Cc4ccc(C(F)(F)F)cc4C3)cc2=O)CC1)C1CC(F)(F)C1 [Compound 88]
IC50 [1]: 59 nM | inhibition at 0.1 µM [1, 7]: 76% | inhibition at 1 µM [1, 8]: 86% | IC50 [3]: 94 nM | inhibition at 0.1 µM [3]: 41.6% | inhibition at 1 µM [3]: 64.5% | AUC(0-t) [4, 5]: 23600 ng·h/mL | half-life [4, 5]: 4.48 h | AUC(0-t) [4, 6]: 8550 ng·h/mL | clearance [4, 6]: 4.82 mL/min/kg | half-life [4, 6]: 4.49 h | Vd [4, 6]: 1.54 L/kg

[2H]C([2H])([2H])n1cc(C(=O)N[C@H]2CC[C@H](/C=C/c3coc(CN4Cc5ccc(C(F)(F)F)cc5C4)cc3=O)CC2)cn1 [Compound 81]
IC50 [1]: 102 nM | inhibition at 0.1 µM [1, 7]: 63% | inhibition at 1 µM [1, 8]: 83% | AUC(0-t) [2, 5]: 40500 ng·h/mL | half-life [2, 5]: 4.29 h | AUC(0-t) [2, 6]: 12900 ng·h/mL | clearance [2, 6]: 3.22 mL/min/kg | half-life [2, 6]: 3.18 h | Vd [2, 6]: 0.704 L/kg | IC50 [3]: 146 nM | AUC(0-t) [4, 5]: 68500 ng·h/mL | half-life [4, 5]: 5.38 h | AUC(0-t) [4, 6]: 22600 ng·h/mL | clearance [4, 6]: 1.69 mL/min/kg | half-life [4, 6]: 6.99 h | Vd [4, 6]: 0.86 L/kg
